“And” between values parts separate entries of the source, which are not always exact repeats. Identical values can stand only once. Inconclusive results and toxic doses are left out.
Tested on: L1210 leukemia ip in BDF1 mice, survival T/C
Experiment: NCI In Vivo Anticancer Drug Screen. Data for tumor model L1210 Leukemia (intraperitoneal) in B6D2F1 (BDF1) mice
Conditions: endpoint: mean survival time, higher = longer survival
How it was run: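 Read-out is survival time, reported as the treated-group measurement over the vehicle-control measurement.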

[1] = dose: 6.25 mg/kg/injection, schedule: Q01DX009 (ip), vehicle: saline with Tween-80
[2] = dose: 12.5 mg/kg/injection, schedule: Q01DX009 (ip), vehicle: saline with Tween-80
[3] = dose: 25.0 mg/kg/injection, schedule: Q04DX003 (ip), vehicle: saline with Tween-80
[4] = dose: 100.0 mg/kg/injection, schedule: Q01DX009 (ip), vehicle: Klucel (hydroxypropylcellulose) (HPC)
[5] = dose: 100.0 mg/kg/injection, schedule: Q04DX003 (ip), vehicle: Klucel (hydroxypropylcellulose) (HPC)
[6] = dose: 200.0 mg/kg/injection, schedule: Q01DX009 (ip), vehicle: Klucel (hydroxypropylcellulose) (HPC)
[7] = dose: 200.0 mg/kg/injection, schedule: Q04DX003 (ip), vehicle: Klucel (hydroxypropylcellulose) (HPC)
[8] = dose: 400.0 mg/kg/injection, schedule: Q01DX009 (ip), vehicle: Klucel (hydroxypropylcellulose) (HPC)
[9] = dose: 400.0 mg/kg/injection, schedule: Q04DX003 (ip), vehicle: Klucel (hydroxypropylcellulose) (HPC)
[10] = dose: 50.0 mg/kg/injection, schedule: Q01DX009 (ip), vehicle: Klucel (hydroxypropylcellulose) (HPC)
[11] = dose: 100.0 mg/kg/injection, schedule: Q01DX001 (ip), vehicle: other
[12] = dose: 200.0 mg/kg/injection, schedule: Q01DX001 (ip), vehicle: other
[13] = dose: 400.0 mg/kg/injection, schedule: Q01DX001 (ip), vehicle: other
[14] = dose: 50.0 mg/kg/injection, schedule: Q01DX009 (ip), vehicle: saline
[15] = dose: 100.0 mg/kg/injection, schedule: Q01DX009 (ip), vehicle: saline
[16] = dose: 100.0 mg/kg/injection, schedule: Q04DX002 (ip), vehicle: Klucel (hydroxypropylcellulose) (HPC)
[17] = dose: 200.0 mg/kg/injection, schedule: Q04DX002 (ip), vehicle: Klucel (hydroxypropylcellulose) (HPC)
[18] = dose: 400.0 mg/kg/injection, schedule: Q04DX002 (ip), vehicle: Klucel (hydroxypropylcellulose) (HPC)

For `CCC(C)(O)C#CC#CC(C)(O)CC` (stereo not given), the T/C [1] was 93 % of control, the T/C [2] was 100 % of control and the T/C (dose: 12.5 mg/kg/injection, schedule: Q04DX003 (ip), vehicle: saline with Tween-80) was 101 % of control. For the same compound, the T/C (dose: 25.0 mg/kg/injection, schedule: Q01DX009 (ip), vehicle: saline with Tween-80) was 96 % of control, the T/C [3] was 97 % of control and the T/C (dose: 50.0 mg/kg/injection, schedule: Q04DX003 (ip), vehicle: saline with Tween-80) was 87 % of control. The T/C [4] was 93 % of control, the T/C [5] was 103 % of control and the T/C [6] was 101 % of control. The T/C [7] was 106 % of control, the T/C [8] was 102 % of control and the T/C [9] was 104 % of control.
With `O=c1[nH]cnc2c1nc1n2CCC1` the T/C (dose: 50.0 mg/kg/injection, schedule: Q01DX009 (ip), vehicle: saline with Tween-80) was 93 % of control, the T/C (dose: 100.0 mg/kg/injection, schedule: Q01DX009 (ip), vehicle: saline with Tween-80) was 90 % of control and the T/C (dose: 100.0 mg/kg/injection, schedule: Q04DX003 (ip), vehicle: saline with Tween-80) was 105 % of control. The T/C (dose: 200.0 mg/kg/injection, schedule: Q01DX009 (ip), vehicle: saline with Tween-80) was 88 % of control and the T/C (dose: 200.0 mg/kg/injection, schedule: Q04DX003 (ip), vehicle: saline with Tween-80) was 102 % of control.
For `c1cc[c]([Pb]([S]c2nc3ccccc3[nH]2)([c]2ccccc2)[c]2ccccc2)cc1`, the T/C (dose: 3.12 mg/kg/injection, schedule: Q04DX002 (ip), vehicle: gum acacia) was 104 % of control, the T/C (dose: 6.25 mg/kg/injection, schedule: Q04DX002 (ip), vehicle: gum acacia) was 101 % of control and the T/C (dose: 12.5 mg/kg/injection, schedule: Q04DX002 (ip), vehicle: gum acacia) was 97 % of control and 101 % of control.
In the case of `Cc1cc2c(C)nc3ccccc3n2c1O`, the T/C [10] was 103 % of control, the T/C [4] was 103 % of control and the T/C [6] was 98 % of control.
For `O=C(Nc1ccccc1F)OCCOc1ccc(Br)cc1`, the T/C [4] was 103 % of control, the T/C [6] was 97 % of control and the T/C [8] was 123 % of control.
In the case of `Nc1nc(-c2cccnc2)nc2c1cnn2-c1ccccc1`, the T/C [11] was 100 % of control, the T/C (dose: 100.0 mg/kg/injection, schedule: Q04DX003 (ip), vehicle: other) was 97 % of control and the T/C [12] was 95 % of control. The T/C (dose: 200.0 mg/kg/injection, schedule: Q04DX003 (ip), vehicle: other) was 104 % of control, the T/C [13] was 94 % of control and the T/C (dose: 400.0 mg/kg/injection, schedule: Q04DX003 (ip), vehicle: other) was 109 % of control.
With `O=P1(N(CCF)CCF)NCCCO1` (stereo not given) the T/C (dose: 2.5 mg/kg/injection, schedule: Q01DX Z (ip), vehicle: saline) was 96 % of control, the T/C (dose: 5.0 mg/kg/injection, schedule: Q01DX Z (ip), vehicle: saline) was 91 % of control and the T/C (dose: 10.0 mg/kg/injection, schedule: Q01DX Z (ip), vehicle: other) was 93 % of control. The T/C (dose: 10.0 mg/kg/injection, schedule: Q01DX Z (ip), vehicle: saline) was 115 % of control and the T/C (dose: 30.0 mg/kg/injection, schedule: Q01DX Z (ip), vehicle: other) was 106 % of control.
In the case of `CC(=O)Oc1ccc(OC(C)=O)c2c1CC1(C)OC1(C)C2` (stereo not given), the T/C (dose: 25.0 mg/kg/injection, schedule: Q01DX009 (ip), vehicle: saline) was 104 % of control, the T/C [14] was 91 % of control and the T/C [15] was 89 % of control. For the same compound, the T/C (dose: 200.0 mg/kg/injection, schedule: Q01DX009 (ip), vehicle: saline) was 93 % of control and the T/C (dose: 400.0 mg/kg/injection, schedule: Q01DX009 (ip), vehicle: saline) was 89 % of control.
`CN(CCN(C)Cc1ccccc1)Cc1ccccc1` was tested, and the T/C [14] was 98 % of control, the T/C [15] was 101 % of control and the T/C (dose: 100.0 mg/kg/injection, schedule: Q04DX003 (ip), vehicle: saline) was 103 % of control. For the same compound, the T/C (dose: 200.0 mg/kg/injection, schedule: Q04DX003 (ip), vehicle: saline) was 98 % of control.
`CCN=C(NCC)Nc1ccc(NC(=O)c2ccc(C(=O)Nc3ccc(NC(=NCC)NCC)cc3)cc2)cc1` was tested, and the T/C (dose: 1.87 mg/kg/injection, schedule: Q01DX Z (ip), vehicle: water) was 93 % of control, the T/C (dose: 3.75 mg/kg/injection, schedule: Q01DX Z (ip), vehicle: water) was 97 % of control and the T/C (dose: 7.5 mg/kg/injection, schedule: Q01DX Z (ip), vehicle: water) was 109 % of control. The T/C (dose: 8.0 mg/kg/injection, schedule: Q01DX009 (ip), vehicle: carboxymethylcellulose (CMC)) was 156 % of control, the T/C (dose: 16.0 mg/kg/injection, schedule: Q01DX009 (ip), vehicle: carboxymethylcellulose (CMC)) was 167 % of control and the T/C (dose: 20.0 mg/kg/injection, schedule: Q01DX001 (ip), vehicle: carboxymethylcellulose (CMC)) was 103 % of control. For the same compound, the T/C (dose: 21.0 mg/kg/injection, schedule: Q01DX001 (ip), vehicle: other) was 103 % of control, the T/C (dose: 31.0 mg/kg/injection, schedule: Q01DX001 (ip), vehicle: other) was 105 % of control and the T/C (dose: 33.0 mg/kg/injection, schedule: Q01DX009 (ip), vehicle: other) was 190 % of control. The T/C (dose: 40.0 mg/kg/injection, schedule: Q01DX001 (ip), vehicle: carboxymethylcellulose (CMC)) was 104 % of control, the T/C (dose: 47.0 mg/kg/injection, schedule: Q01DX001 (ip), vehicle: other) was 116 % of control and the T/C (dose: 50.0 mg/kg/injection, schedule: Q01DX009 (ip), vehicle: other) was 181 % of control. For the same compound, the T/C (dose: 70.0 mg/kg/injection, schedule: Q01DX001 (ip), vehicle: other) was 114 % of control, the T/C (dose: 75.0 mg/kg/injection, schedule: Q01DX001 (ip), vehicle: other) was 118 % of control and the T/C (dose: 75.0 mg/kg/injection, schedule: Q01DX009 (ip), vehicle: other) was 107 % of control. For the same compound, the T/C (dose: 80.0 mg/kg/injection, schedule: Q01DX001 (ip), vehicle: carboxymethylcellulose (CMC)) was 119 % of control, the T/C (dose: 100.0 mg/kg/injection, schedule: Q01DX001 (ip), vehicle: carboxymethylcellulose (CMC)) was 121 % of control and the T/C (dose: 106.0 mg/kg/injection, schedule: Q01DX001 (ip), vehicle: other) was 114 % of control. The T/C (dose: 150.0 mg/kg/injection, schedule: Q01DX001 (ip), vehicle: other) was 153 % of control, the T/C (dose: 160.0 mg/kg/injection, schedule: Q01DX001 (ip), vehicle: carboxymethylcellulose (CMC)) was 167 % of control and 196 % of control and the T/C (dose: 160.0 mg/kg/injection, schedule: Q01DX001 (ip), vehicle: other) was 112 % of control. The T/C (dose: 240.0 mg/kg/injection, schedule: Q01DX001 (ip), vehicle: other) was 227 % of control and the T/C (dose: 300.0 mg/kg/injection, schedule: Q01DX001 (ip), vehicle: other) was 212 % of control.
For `CC(=O)OCCc1ccccc1C`, the T/C [16] was 112 % of control, the T/C [17] was 104 % of control and the T/C [18] was 101 % of control.
`CC1(C)CC(=O)C(C)(C)C(=O)C1` was tested, and the T/C [1] was 103 % of control, the T/C [2] was 98 % of control and the T/C [3] was 102 % of control.
`CCOC(=O)N(C)c1ccccc1` was tested, and the T/C [4] was 101 % of control, the T/C [5] was 97 % of control and the T/C [6] was 105 % of control. For the same compound, the T/C [7] was 97 % of control, the T/C [8] was 101 % of control and the T/C [9] was 97 % of control.
For `CN(C)C(=O)C(=O)c1c[nH]c2ccccc12`, the T/C [16] was 118 % of control, the T/C [17] was 109 % of control and the T/C [18] was 109 % of control.
`Nc1cc(Cl)nc(-c2ccccc2)n1` was tested, and the T/C [10] was 98 % of control, the T/C [4] was 98 % of control and the T/C [6] was 102 % of control.
`CC(=O)c1cc2cc(Br)ccc2oc1=O` was tested, and the T/C [4] was 98 % of control, the T/C [6] was 88 % of control and the T/C [8] was 96 % of control.
With `CCOC(=O)NC(NC(=O)OCC)c1ccco1` the T/C [11] was 98 % of control, the T/C [12] was 98 % of control and the T/C [13] was 89 % of control.
`NC(N)=NCCCCNCCCN=C(N)N` was tested, and the T/C (dose: 75.0 mg/kg/injection, schedule: Q01DX001 (ip), vehicle: saline) was 98 % of control and the T/C (dose: 150.0 mg/kg/injection, schedule: Q01DX001 (ip), vehicle: saline) was 107 % of control.
